The target in data set [1] is T1, NTR1 (Homo sapiens, UniProt P30989). The experiment in a line: NTR1 Ca2+ Flux assay. Format: cell-based.
For data set [2], the target named is T1, NTR1. Kind of data set: NTR1 HCS primary assay. Format: cell-based. To be noted: for loss in potency compared to 32: NTR1 HCS EC50 relative to compound 32.
Data set [3] has as its system Fa2N-4 Immortalized Human Hepatocytes. Kind of data set: Toxicity towards hepatocytes. The class given is cell-based. To be noted: LC50 towards human hepatocytes versus NTR1 potency.
Data set [4] deals with adrenergic receptors (α1a, α1B, α1D, α2A). The experiment in a line: Panlabs/Ricerca lead profiling panel. Format: binding. The note with it: at 10 μM, range across α1a.
The subject of data set [5] is GPR55, APJ, k-opiod, CCR6, and CXCR6. Kind of data set: Functional high content or β-arrestin based GPCR screens. The class given is cell-based. To be noted: result in words.
[6] abbreviates: NTR1 HCS EC50 relative to compound 5.

These results are taken from publication PMC3940307 (ACS medicinal chemistry letters, 2013).

Entries after “also recorded” stand apart in the source; their conditions may differ.

T1 sequence (P30989 whole entry): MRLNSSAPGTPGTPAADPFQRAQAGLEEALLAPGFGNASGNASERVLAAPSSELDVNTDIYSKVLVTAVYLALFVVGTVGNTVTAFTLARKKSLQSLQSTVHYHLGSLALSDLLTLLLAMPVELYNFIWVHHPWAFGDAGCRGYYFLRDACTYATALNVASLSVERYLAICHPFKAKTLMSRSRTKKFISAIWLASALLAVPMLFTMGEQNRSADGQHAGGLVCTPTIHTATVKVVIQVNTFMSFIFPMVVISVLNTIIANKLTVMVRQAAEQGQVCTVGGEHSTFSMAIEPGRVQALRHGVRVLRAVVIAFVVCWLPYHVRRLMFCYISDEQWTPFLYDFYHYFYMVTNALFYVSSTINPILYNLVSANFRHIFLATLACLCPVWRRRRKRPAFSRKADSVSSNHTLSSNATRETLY

In turn, `COc1cccc(OC)c1-c1cc(C(=O)N[C@@H](CC(C)C)C(=O)O)nn1-c1ccnc2cc(Cl)ccc12` [Compound 2, reference compound] showed a concentration giving a half-maximal response (EC50) on NTR1 [1] (NTR1 Ca2+ flux assay) below 156 nM. Consider `COc1cc2nc(C3CCC3)nc(N3CCN(c4ccccn4)CC3)c2cc1OC` [Compound 18], for which, on NTR1 [2] (setting [6]), the “loss of potency compared to 5” value is listed as above 6 fold. On the same count and under the same terms, under `CCOc1cc2c(N3CCN(c4ccccc4[N+](=O)[O-])CC3)nc(-c3ccccc3)nc2cc1OC` [Compound 19] stands above 6 fold. Take `COc1cc2nc(C3CC3)nc(N3CCN(c4ccccc4OC)CC3)c2cc1OC` [Compound 32, 2-cyclopropyl-6,7-dimethoxy-4-(4-(2-methoxyphenyl)-piperazin-1-yl)quinazoline]: the “improvement in activity over 5” value at NTR1 [2] (setting [6]) came to 3 fold. Also, in data set [3], the window for toxicity is listed as above 15 fold. Further, the binding in data set [4] is reported as 63-100%. Also, at NTR1 [1] (result in words), the “response in Ca2+ mobilization / flux assay” value is on record as “no significant response; also recorded: no significant activity”. Moreover, the cross reactivity result in data set [5] is “no cross reactivity”.

With `COc1ccc2c(N3CCN(c4ccccc4OC)CC3)nc(C3CCC3)nc2c1` [Compound 38], the “loss of potency compared to 5” value at NTR1 [2] (setting [6]) is 4-6 fold. Consider `COc1ccccc1N1CCN(c2nc(C3CCC3)nc3ccccc23)CC1` [Compound 39], for which the “loss of potency compared to 5” value at NTR1 [2] (setting [6]) is 4-6 fold. Take `COc1ccccc1N1CCN(c2nc(C3CCC3)nc3cc4c(cc23)OCO4)CC1` [Compound 40]: at NTR1 [2] (setting [6]), the “loss of potency compared to 5” value is on record as “over 6 fold”.

Turning to `CCOc1ccccc1N1CCN(c2nc(C3CC3)nc3cc(OC)c(OC)cc23)CC1` [Compound 42], the “loss in potency compared to 32” value at NTR1 [2] is reported as 3-10 fold. On the same count and under the same terms, under `COc1cc2nc(C3CC3)nc(N3CCN(c4ccccc4Cl)CC3)c2cc1OC` [Compound 43] stands 3-10 fold.

The term EC50 denotes the concentration that produces a half-maximal response.
